{
  "source": "patent US20040028714A1",
  "about": "“Composition having insect repellent characteristics” (priority 2000, published 2004)",
  "key": {"[1]": {"system": "Black Ants (Ochetellus sp)", "assay": "Ant repellency on half-treated formica (Example 4)", "format": "in vivo", "conditions": "20 mg/m^2 on formica; for Number of Black Ants present, Treated Section / Number of Black Ants present, Untreated Section / Number of Black Ants, Dead: single replicates (n = 20); for Number of Black Ants present, Treated Section, Total / Number of Black Ants present, Untreated Section, Total / Number of Black Ants, Dead, Total: total of 4 replicates (80)", "protocol": "The effectiveness of compound 2 (example 1) as an insect repellent was determined using ants exposed to a formica surface partially treated/partially untreated with compound 2, and was directly compared to the repellency of the well known insect repellents Farnesol and Dihydrofarnesal.\nThe study was conducted in an air conditioned laboratory at a temperature of 22°±2° C. under a normal day/night cycle, using Black Ants (Ochetellus sp) of mixed sex and age. The study ws conducted over a 3 day period and the repellent effectiveness assessed 1, 2 and 3 days after ant introduction.\nOne half of a rectangle of formica 40 cm×30 cm was treated at 20 mg/m^2 with the test compounds. This was achieved by soaking a paper wipe (Rag On A Roll approximately 20 cm×20 cm) in a solution of the test compound in ethanol, squeezing out the excess liquid and wiping over the surface to give the required coverage. This was checked by weighing the cloth after application. The surface was allowed to dry. The other half was wiped with ethanol alone (untreated surface).\nThe treated formica rectangle was placed on the bench and a glass ring (diameter 20 cm) was placed on the rectangle. This had been treated with fluon to prevent ant escape.\nA small plastic container 2 cm in diameter was placed on the formica, one on the treated surface and one on the untreated surface. The plastic container placed on the treated surface had repellent applied in the same way as the treated formica. The plastic container on the untreated surface was wiped with ethanol.\n24 hours after treatment (1 day) 20 ants were added to the centre of the formica. No food and water was supplied for these ants. 2 hours after this the number of ants on the treated and untreated surfaces was counted.\nThe above was repeated 3 times to provide a total of 4 replicates.\nThe above was repeated at 2 days and 3 days. New ants were used at each time period."}, "[2]": {"system": "German cockroaches (Blatella Germanica)", "assay": "Cockroach repellency in tray with half-treated vinyl, compared with DEET and N-methyl-neodecanamide (Example 3)", "format": "in vivo", "conditions": "20 mg/m^2 on vinyl; for Number of Cockroaches present, Treated Section / Number of Cockroaches present, Untreated Section / Number of Cockroaches, Dead: single replicates (n = 50); for Number of Cockroaches present, Treated Section, Total / Number of Cockroaches present, Untreated Section, Total / Number of Cockroaches, Dead, Total: total of 4 replicates (200); for Percentage Dead / Percentage Present, Treated Section / Percentage Present, Untreated Section: cockroaches", "protocol": "The effectiveness of compound 2 (example 1) as an insect repellent was determined using German cockroaches exposed to a formica surface partially treated/partially un-treated, and was directly compared to the repellency of the well known insect repellents DEET (N,N-diethyl-meta-toluamide) and N-methyl-neodecanamide. The study was conducted in an air conditioned laboratory at a temperature of 22°±2° C. under a normal day/night cycle, using German cockroaches (Blatella Germanica) of mixed sex and age. The study was conducted over a 7 days period and the repellent effectiveness was assessed 1, 3, 5 and 7 days after cockroach introduction. Each tray used in the study consisted of a melamine square tray of sides 1.8m×1.8m and 20 cm high walls. The upper part of the wall was provided with electrical strip, which prevented cockroaches escaping. A square of vinyl 90 cm×180 cm was treated with the test compound at 20 mg/m^2. This was achieved by soaking a paper wipe (Rag on a Roll, ca. 20 cm×20 cm) in a solution of the test compound in ethanol, squeezing out the excess liquid and wiping over the surface to give the required coverage. This was checked by weighing the cloth after application. The surface was allowed to dry. The treated vinyl square was placed in one half of the tray. A similar untreated square was placed in the other half of the tray. This square was treated with ethanol alone. Two sheets of formica (30 cm×30 cm) were placed at one corner of each tray, one on the treated surface and one on the untreated surface. This acted as a cockroach harbourage. The formica sheet to be used in the treated section was treated at the same rate as the treated formica. The formica was placed on two 1 cm high bottle tops to allow cockroaches access under the formica. 50 German cockroaches were added (15 adults and 35 nymphs) to the middle of the tray. No food and water was supplied for these cockroaches. At 1, 2, 3 and 7 days after cockroach introduction the number of cockroaches under each harbourage was counted. After each count the harbourage position was change to avoid the possibility of habituation to one location, the harbourages were replaced and new cockroaches were added to replace any dead cockroaches. The above was repeated 3 times to provide a total of 4 replicates."}, "[3]": {"conditions": "ants, average of days 1, 2 and 3"}, "[4]": {"conditions": "1 day after cockroach introduction"}, "[5]": {"conditions": "2 days after cockroach introduction"}, "[6]": {"conditions": "3 days after cockroach introduction"}, "[7]": {"conditions": "7 days after cockroach introduction"}},
  "note": "Where “and” joins values, the source holds several entries; their conditions need not be identical. Equal entries are not always repeated.",
  "data": [
    {"smiles": "CCNC(=O)C1CC(C)CCC1C(C)C", "note": "(stereo not shown) [Compound 2, N-ethyl-p-menthane-3-carboxamide]", "values": [
      {"measurement": "ant repellency (in words)", "setting": "[1]; 1, 2 and 3 days after treatment", "value": "superior to these two products"},
      {"measurement": "Number of Black Ants present, Treated Section", "setting": "[1]; day 1", "value": "0 (2×) and 2 and 1"},
      {"measurement": "Number of Black Ants present, Untreated Section", "setting": "[1]; day 1", "value": "20 (2×) and 18 and 19"},
      {"measurement": "Number of Black Ants, Dead", "setting": "[1]; day 1", "value": 0},
      {"measurement": "Number of Black Ants present, Treated Section, Total", "setting": "[1]; day 1", "value": 3},
      {"measurement": "Number of Black Ants present, Untreated Section, Total", "setting": "[1]; day 1", "value": 77},
      {"measurement": "Number of Black Ants, Dead, Total", "setting": "[1]; day 1", "value": 0},
      {"measurement": "Number of Black Ants present, Treated Section", "setting": "[1]; day 2", "value": "1 and 3 (2×) and 2"},
      {"measurement": "Number of Black Ants present, Untreated Section", "setting": "[1]; day 2", "value": "19 and 17 (2×) and 18"},
      {"measurement": "Number of Black Ants, Dead", "setting": "[1]; day 2", "value": 0},
      {"measurement": "Number of Black Ants present, Treated Section, Total", "setting": "[1]; day 2", "value": 9},
      {"measurement": "Number of Black Ants present, Untreated Section, Total", "setting": "[1]; day 2", "value": 71},
      {"measurement": "Number of Black Ants, Dead, Total", "setting": "[1]; day 2", "value": 0},
      {"measurement": "Number of Black Ants present, Treated Section", "setting": "[1]; day 3", "value": "0 and 1 and 2 and 3"},
      {"measurement": "Number of Black Ants present, Untreated Section", "setting": "[1]; day 3", "value": "20 and 19 and 18 and 17"},
      {"measurement": "Number of Black Ants, Dead", "setting": "[1]; day 3", "value": 0},
      {"measurement": "Number of Black Ants present, Treated Section, Total", "setting": "[1]; day 3", "value": 6},
      {"measurement": "Number of Black Ants present, Untreated Section, Total", "setting": "[1]; day 3", "value": 74},
      {"measurement": "Number of Black Ants, Dead, Total", "setting": "[1]; day 3", "value": 0},
      {"measurement": "Percentage Dead", "setting": "[1]; ants, 1 day after treatment", "value": 0, "unit": "%"},
      {"measurement": "Percentage Present, Treated Section", "setting": "[1]; ants, 1 day after treatment", "value": 3.7, "unit": "%"},
      {"measurement": "Percentage Present, Untreated Section", "setting": "[1]; ants, 1 day after treatment", "value": 96.3, "unit": "%"},
      {"measurement": "Percentage Dead", "setting": "[1]; ants, 2 days after treatment", "value": 0, "unit": "%"},
      {"measurement": "Percentage Present, Treated Section", "setting": "[1]; ants, 2 days after treatment", "value": 11.2, "unit": "%"},
      {"measurement": "Percentage Present, Untreated Section", "setting": "[1]; ants, 2 days after treatment", "value": 88.8, "unit": "%"},
      {"measurement": "Percentage Dead", "setting": "[1]; ants, 3 days after treatment", "value": 0, "unit": "%"},
      {"measurement": "Percentage Present, Treated Section", "setting": "[1]; ants, 3 days after treatment", "value": 7.5, "unit": "%"},
      {"measurement": "Percentage Present, Untreated Section", "setting": "[1]; ants, 3 days after treatment", "value": 92.5, "unit": "%"},
      {"measurement": "Percentage Dead, Average", "setting": "[1]; [3]", "value": 0, "unit": "%"},
      {"measurement": "Percentage Present, Treated Section, Average", "setting": "[1]; [3]", "value": 7.5, "unit": "%"},
      {"measurement": "Percentage Present, Untreated Section, Average", "setting": "[1]; [3]", "value": 92.5, "unit": "%"},
      {"measurement": "cockroach repellency (in words)", "setting": "[2]; over 7 days", "value": "excellent repellency"},
      {"measurement": "Number of Cockroaches present, Treated Section", "setting": "[2]; [4]", "value": "0 (3×) and 3"},
      {"measurement": "Number of Cockroaches present, Untreated Section", "setting": "[2]; [4]", "value": "50 (2×) and 49 and 47"},
      {"measurement": "Number of Cockroaches, Dead", "setting": "[2]; [4]", "value": "0 (3×) and 1"},
      {"measurement": "Number of Cockroaches present, Treated Section, Total", "setting": "[2]; [4]", "value": 3},
      {"measurement": "Number of Cockroaches present, Untreated Section, Total", "setting": "[2]; [4]", "value": 196},
      {"measurement": "Number of Cockroaches, Dead, Total", "setting": "[2]; [4]", "value": 1},
      {"measurement": "Number of Cockroaches present, Treated Section", "setting": "[2]; [5]", "value": "0 (3×) and 1"},
      {"measurement": "Number of Cockroaches present, Untreated Section", "setting": "[2]; [5]", "value": "50 (2×) and 49 (2×)"},
      {"measurement": "Number of Cockroaches, Dead", "setting": "[2]; [5]", "value": "0 (3×) and 1"},
      {"measurement": "Number of Cockroaches present, Treated Section, Total", "setting": "[2]; [5]", "value": 1},
      {"measurement": "Number of Cockroaches present, Untreated Section, Total", "setting": "[2]; [5]", "value": 198},
      {"measurement": "Number of Cockroaches, Dead, Total", "setting": "[2]; [5]", "value": 1},
      {"measurement": "Number of Cockroaches present, Treated Section", "setting": "[2]; [6]", "value": "6 and 3 and 0 (2×)"},
      {"measurement": "Number of Cockroaches present, Untreated Section", "setting": "[2]; [6]", "value": "44 and 47 and 50 and 49"},
      {"measurement": "Number of Cockroaches, Dead", "setting": "[2]; [6]", "value": "0 (3×) and 1"},
      {"measurement": "Number of Cockroaches present, Treated Section, Total", "setting": "[2]; [6]", "value": 9},
      {"measurement": "Number of Cockroaches present, Untreated Section, Total", "setting": "[2]; [6]", "value": 190},
      {"measurement": "Number of Cockroaches, Dead, Total", "setting": "[2]; [6]", "value": 1},
      {"measurement": "Number of Cockroaches present, Treated Section", "setting": "[2]; [7]", "value": "7 and 19 and 3 and 11"},
      {"measurement": "Number of Cockroaches present, Untreated Section", "setting": "[2]; [7]", "value": "43 and 30 and 47 and 38"},
      {"measurement": "Number of Cockroaches, Dead", "setting": "[2]; [7]", "value": "0 (2×) and 1 (2×)"},
      {"measurement": "Number of Cockroaches present, Treated Section, Total", "setting": "[2]; [7]", "value": 40},
      {"measurement": "Number of Cockroaches present, Untreated Section, Total", "setting": "[2]; [7]", "value": 158},
      {"measurement": "Number of Cockroaches, Dead, Total", "setting": "[2]; [7]", "value": 2},
      {"measurement": "Percentage Dead", "setting": "[2]; 1 day after treatment", "value": 0.5, "unit": "%"},
      {"measurement": "Percentage Present, Treated Section", "setting": "[2]; 1 day after treatment", "value": 1.5, "unit": "%"},
      {"measurement": "Percentage Present, Untreated Section", "setting": "[2]; 1 day after treatment", "value": 98.0, "unit": "%"},
      {"measurement": "Percentage Dead", "setting": "[2]; 2 days after treatment", "value": 0.5, "unit": "%"},
      {"measurement": "Percentage Present, Treated Section", "setting": "[2]; 2 days after treatment", "value": 0.5, "unit": "%"},
      {"measurement": "Percentage Present, Untreated Section", "setting": "[2]; 2 days after treatment", "value": 99.0, "unit": "%"},
      {"measurement": "Percentage Dead", "setting": "[2]; 3 days after treatment", "value": 0.5, "unit": "%"},
      {"measurement": "Percentage Present, Untreated Section", "setting": "[2]; 3 days after treatment", "value": 95.0, "unit": "%"},
      {"measurement": "Percentage Dead", "setting": "[2]; 7 days after treatment", "value": 1.0, "unit": "%"},
      {"measurement": "Percentage Present, Treated Section", "setting": "[2]; 7 days after treatment", "value": 20, "unit": "%"},
      {"measurement": "Percentage Present, Untreated Section", "setting": "[2]; 7 days after treatment", "value": 79.0, "unit": "%"}
    ]}
  ]
}
